Results as given in ChEMBL document CHEMBL5579851, “Synthesis and antifungal evaluation of novel triazole derivatives bearing a pyrazole-methoxyl moiety” (Eur J Med Chem, 2024).
≈ marks a conversion by molar mass, not a printed value.

What was measured:
Format in all cases: functional
Candida albicans [1] = test: Antifungal activity against Candida albicans SC5314 assessed as inhibition of fungal growth incubated for 48 hrs by CLSI based broth microdilution assay
Candida albicans [2] = test: Antifungal activity against Candida albicans 10231 assessed as inhibition of fungal growth incubated for 48 hrs by CLSI based broth microdilution assay
Cryptococcus neoformans = test: Antifungal activity against Cryptococcus neoformans 32609 assessed as inhibition of fungal growth incubated for 72 hrs by CLSI based broth microdilution assay
Nakaseomyces glabratus = test: Antifungal activity against Candida glabrata 537 assessed as inhibition of fungal growth incubated for 48 hrs by CLSI based broth microdilution assay
Candida parapsilosis = test: Antifungal activity against Candida parapsilosis 22019 assessed as inhibition of fungal growth incubated for 48 hrs by CLSI based broth microdilution assay; conditions: Lodderomyces parapsilosis
Pichia kudriavzevii = test: Antifungal activity against Candida krusei 4996 assessed as inhibition of fungal growth incubated for 48 hrs by CLSI based broth microdilution assay
Candida tropicalis = test: Antifungal activity against Candida tropicalis 8915 assessed as inhibition of fungal growth incubated for 48 hrs by CLSI based broth microdilution assay
Candida albicans [3] = test: Antifungal activity against fluconazole-resistant Candida albicans 901 assessed as inhibition of fungal growth incubated for 48 hrs by CLSI based broth microdilution assay
Candida albicans [4] = test: Antifungal activity against fluconazole-resistant Candida albicans 904 assessed as inhibition of fungal growth incubated for 48 hrs by CLSI based broth microdilution assay
[Candida] auris [5] = Antifungal activity against fluconazole-resistant Candida auris 891 assessed as inhibition of fungal growth incubated for 48 hrs by CLSI based broth microdilution assay; conditions: Candidozyma auris
[Candida] auris [6] = Antifungal activity against fluconazole-resistant Candida auris 918 assessed as inhibition of fungal growth incubated for 48 hrs by CLSI based broth microdilution assay; conditions: Candidozyma auris
[Candida] auris [7] = Antifungal activity against fluconazole-resistant Candida auris 919 assessed as inhibition of fungal growth incubated for 48 hrs by CLSI based broth microdilution assay; conditions: Candidozyma auris

MIC (Candida albicans [1])	MIC (Candida albicans [2])	MIC (Cryptococcus neoformans)	MIC (Nakaseomyces glabratus)	MIC (Candida parapsilosis)	MIC (Pichia kudriavzevii)	MIC (Candida tropicalis)	Structure (SMILES)	MIC (Candida albicans [3])	MIC (Candida albicans [4])	MIC ([Candida] auris [5])	MIC ([Candida] auris [6])	MIC ([Candida] auris [7])
0.25 µg/mL (≈ 0.461 µM)	0.5 µg/mL (≈ 0.921 µM)	≤ 0.125 µg/mL	1 µg/mL (≈ 1.84 µM)	2 µg/mL (≈ 3.68 µM)	8 µg/mL (≈ 14.7 µM)	64 µg/mL (≈ 118 µM)	C[C@@H](OCc1ccn(Cc2c(Cl)cc(Cl)cc2Cl)n1)[C@](O)(Cn1cncn1)c1ccc(F)cc1F	–	–	–	–	–
0.25 µg/mL (≈ 0.492 µM)	0.5 µg/mL (≈ 0.984 µM)	0.25 µg/mL (≈ 0.492 µM)	0.5 µg/mL (≈ 0.984 µM)	1 µg/mL (≈ 1.97 µM)	4 µg/mL (≈ 7.87 µM)	32 µg/mL (≈ 62.9 µM)	C[C@@H](OCc1ccn(Cc2cc(Cl)ccc2Cl)n1)[C@](O)(Cn1cncn1)c1ccc(F)cc1F	–	–	–	–	–
0.25 µg/mL (≈ 0.492 µM)	0.25 µg/mL (≈ 0.492 µM)	0.5 µg/mL (≈ 0.984 µM)	1 µg/mL (≈ 1.97 µM)	0.25 µg/mL (≈ 0.492 µM)	4 µg/mL (≈ 7.87 µM)	32 µg/mL (≈ 62.9 µM)	C[C@@H](OCc1ccn(Cc2ccc(Cl)cc2Cl)n1)[C@](O)(Cn1cncn1)c1ccc(F)cc1F	–	–	–	–	–
≤ 0.125 µg/mL	0.25 µg/mL (≈ 0.526 µM)	0.5 µg/mL (≈ 1.05 µM)	0.25 µg/mL (≈ 0.526 µM)	0.5 µg/mL (≈ 1.05 µM)	8 µg/mL (≈ 16.8 µM)	0.25 µg/mL (≈ 0.526 µM)	C[C@@H](OCc1ccn(Cc2cccc(F)c2F)n1)[C@](O)(Cn1cncn1)c1ccc(F)cc1F	–	–	–	–	–
0.25 µg/mL (≈ 0.492 µM)	0.5 µg/mL (≈ 0.984 µM)	0.25 µg/mL (≈ 0.492 µM)	0.5 µg/mL (≈ 0.984 µM)	1 µg/mL (≈ 1.97 µM)	8 µg/mL (≈ 15.7 µM)	32 µg/mL (≈ 62.9 µM)	C[C@@H](OCc1ccn(Cc2c(Cl)cccc2Cl)n1)[C@](O)(Cn1cncn1)c1ccc(F)cc1F	–	–	–	–	–
≤ 0.125 µg/mL	0.25 µg/mL (≈ 0.508 µM)	0.25 µg/mL (≈ 0.508 µM)	1 µg/mL (≈ 2.03 µM)	1 µg/mL (≈ 2.03 µM)	4 µg/mL (≈ 8.13 µM)	8 µg/mL (≈ 16.3 µM)	C[C@@H](OCc1ccn(Cc2ccc(F)cc2Cl)n1)[C@](O)(Cn1cncn1)c1ccc(F)cc1F	–	–	–	–	–

The next lines start with the compound.

Structure (SMILES)	MIC (Candida albicans [1])	MIC (Candida albicans [2])	MIC (Cryptococcus neoformans)	MIC (Nakaseomyces glabratus)	MIC (Candida parapsilosis)	MIC (Pichia kudriavzevii)	MIC (Candida tropicalis)	MIC (Candida albicans [3])	MIC (Candida albicans [4])	MIC ([Candida] auris [5])	MIC ([Candida] auris [6])	MIC ([Candida] auris [7])
Cc1ccccc1Cn1ccc(CO[C@H](C)[C@](O)(Cn2cncn2)c2ccc(F)cc2F)n1	≤ 0.125 µg/mL	0.25 µg/mL (≈ 0.551 µM)	0.5 µg/mL (≈ 1.1 µM)	1 µg/mL (≈ 2.21 µM)	0.5 µg/mL (≈ 1.1 µM)	8 µg/mL (≈ 17.6 µM)	> 64 µg/mL	–	–	–	–	–
C[C@@H](OCc1ccn(Cc2cc(F)ccc2F)n1)[C@](O)(Cn1cncn1)c1ccc(F)cc1F	≤ 0.125 µg/mL	0.25 µg/mL (≈ 0.526 µM)	0.5 µg/mL (≈ 1.05 µM)	0.25 µg/mL (≈ 0.526 µM)	0.5 µg/mL (≈ 1.05 µM)	4 µg/mL (≈ 8.41 µM)	0.25 µg/mL (≈ 0.526 µM)	> 64 µg/mL	> 64 µg/mL	16 µg/mL (≈ 33.7 µM)	32 µg/mL (≈ 67.3 µM)	32 µg/mL (≈ 67.3 µM)
C[C@@H](OCc1ccn(Cc2ccc(C#N)cc2)n1)[C@](O)(Cn1cncn1)c1ccc(F)cc1F	≤ 0.125 µg/mL	0.25 µg/mL (≈ 0.538 µM)	1 µg/mL (≈ 2.15 µM)	1 µg/mL (≈ 2.15 µM)	0.5 µg/mL (≈ 1.08 µM)	8 µg/mL (≈ 17.2 µM)	0.5 µg/mL (≈ 1.08 µM)	–	–	–	–	–
C[C@@H](OCc1ccn(Cc2ccc(Cl)cc2F)n1)[C@](O)(Cn1cncn1)c1ccc(F)cc1F	≤ 0.125 µg/mL	0.25 µg/mL (≈ 0.508 µM)	0.25 µg/mL (≈ 0.508 µM)	0.25 µg/mL (≈ 0.508 µM)	0.5 µg/mL (≈ 1.02 µM)	2 µg/mL (≈ 4.07 µM)	0.5 µg/mL (≈ 1.02 µM)	16 µg/mL (≈ 32.5 µM)	8 µg/mL (≈ 16.3 µM)	8 µg/mL (≈ 16.3 µM)	32 µg/mL (≈ 65.1 µM)	16 µg/mL (≈ 32.5 µM)
Cc1ccc(Cn2ccc(CO[C@H](C)[C@](O)(Cn3cncn3)c3ccc(F)cc3F)n2)cc1	≤ 0.125 µg/mL	0.25 µg/mL (≈ 0.551 µM)	0.5 µg/mL (≈ 1.1 µM)	2 µg/mL (≈ 4.41 µM)	0.25 µg/mL (≈ 0.551 µM)	2 µg/mL (≈ 4.41 µM)	16 µg/mL (≈ 35.3 µM)	–	–	–	–	–
C[C@@H](OCc1ccn(Cc2cccc(F)c2)n1)[C@](O)(Cn1cncn1)c1ccc(F)cc1F	≤ 0.125 µg/mL	≤ 0.125 µg/mL	0.25 µg/mL (≈ 0.547 µM)	0.25 µg/mL (≈ 0.547 µM)	0.5 µg/mL (≈ 1.09 µM)	4 µg/mL (≈ 8.74 µM)	64 µg/mL (≈ 140 µM)	–	–	–	–	–
C[C@@H](OCc1ccn(Cc2ccc(I)cc2)n1)[C@](O)(Cn1cncn1)c1ccc(F)cc1F	≤ 0.125 µg/mL	≤ 0.125 µg/mL	0.25 µg/mL (≈ 0.442 µM)	≤ 0.125 µg/mL	0.25 µg/mL (≈ 0.442 µM)	2 µg/mL (≈ 3.54 µM)	0.5 µg/mL (≈ 0.884 µM)	8 µg/mL (≈ 14.2 µM)	16 µg/mL (≈ 28.3 µM)	16 µg/mL (≈ 28.3 µM)	16 µg/mL (≈ 28.3 µM)	4 µg/mL (≈ 7.08 µM)
